Source: US20100111965A1, “COMBINATION THERAPY” (FUSION ANTIBODIES LIMITED, priority 2006, published 2010)

Tests used:
[1] = system: HCT116; assay: RT-PCR of AREG RNA in HCT116 cells after chemotherapy; assay type: cell-based, human; settings: IC50 dose, 48 hours
Procedure: FIG. 1B illustrates analysis of AREG and beta actin RNA expression in HCT116 +/+ with/without a 48 hour CPT11 treatment. RNA levels were analyzed following 35 cycles of PCR to determine relative differences in expression between treated and untreated samples;
(§1) FIG. 6 illustrates AREG upregulation following chemotherapeutic challenge in A) HT29, B) HCT116 and C) MDA-MB231 cells. Cells were treated with/without chemotherapy for 48 hours. RT-PCR was performed with 1 μg of total RNA using primer pairs specific for the human AREG gene or GAPDH. The PCR products were separated on 1.5% agarose gel electrophoresis and visualized by ethidium bromide staining.
Cells in a log phase of growth were seeded into T75 flask at ˜20% confluence and incubated overnight to allow adherence to the plate. […] Chemotherapy was substituted with saline in control flasks. After different time exposure to chemotherapy the cells were harvested, washed 3 times in PBS and total RNA was isolated using the RNA TAT-60 reagent according to the manufacturer instructions. […]
Semi quantitative RT-PCR was performed using a PTC 225 Gradient Cycler (MJ Research Incorporated. The PCR mixture, in a final volume of 25 μL, contains 12.5 μL of 2× Biomix (Bioline, UK), 2 μL of primers (10 μmol/L), 1 μL of cDNA and 9.5 μL of dH2O). […]

[2] = system: H460 lung cancer cells; assay: RT-PCR of AREG RNA in H460 lung cancer cells after chemotherapy; assay type: cell-based; settings: 48 hour treatment
Procedure: FIG. 5 illustrates analysis of AREG and beta actin RNA expression in H460 lung cancer cells with/without either a 48 hour CPT11 treatment or 5-Fu treatment. RNA levels were analyzed following 35 cycle of PCR to determine relative differences in expression between treated and untreated samples.
Cells in a log phase of growth were seeded into T75 flask at ˜20% confluence and incubated overnight to allow adherence to the plate. […] Chemotherapy was substituted with saline in control flasks. After different time exposure to chemotherapy the cells were harvested, washed 3 times in PBS and total RNA was isolated using the RNA TAT-60 reagent according to the manufacturer instructions.
Reverse transcription was performed with 2.5 μg of RNA using a High Capacity cDNA Archive kit (Applied Biosystem) according to the instruction of the manufacturer.
Semi quantitative RT-PCR was performed using a PTC 225 Gradient Cycler (MJ Research Incorporated. The PCR mixture, in a final volume of 25 μL, contains 12.5 μL of 2× Biomix (Bioline, UK), 2 μL of primers (10 μmol/L), 1 μL of cDNA and 9.5 μL of dH2O). PCR conditions were initial denaturation step of 95 C for 10 minutes, followed by 35 cycles of 95° C. for 30 sec for denaturation; as annealing step 55° C. for 30 sec; and extension at 72° C. for 90 sec, with a final extension of 72° C. for 10 minutes. […]

[3] = system: HT29 colorectal cancer cells; assay: RT-PCR of AREG mRNA in HT29 cells after chemotherapy; assay type: cell-based, human; settings: IC50 dose, 48 hours
Procedure: as §1
For Example 2, Total RNA was isolated from cells following the RNA STAT-60 manufacturer's protocol (Biogenesis, Poole, U.K.). RT-PCR was performed with 1 μg of total cell RNA using a Promega ImProm-II™ Reverse Transcription System (Promega, Southhampton, UK). PCR was performed using primer pairs specific for human AREG (Forward 5′-[…]-3′(SEQ ID No:19), Reverse 5′-[…]-3′ (SEQ ID No:20)), human HB-EGF (Forward 5′-[…]-3′(SEQ ID No:21), Reverse 5′-[…]-3′(SEQ ID No:22)), human GAPDH as a control (Forward 5′[…]-3′(SEQ ID No:23), Reverse 5′ […]-3′(SEQ ID NO:24)) and human Beta-actin as a control (Forward 5′-[…]-3′(SEQ ID No:25), Reverse 5′-[…]-3′(SEQ ID No:26)).
The PCR products were separated on 1.5% agarose gel and visualized by ethidium bromide staining.

[4] = system: HCT 116 +/+; assay: Confocal microscopy of AREG expression in HCT116 after CPT-11; assay type: cell-based, human; settings: 24 h and 48 h, compared to untreated controls
[5] = system: HCT116 cells; assay: MTT assay, HCT116 cell proliferation; assay type: cell-based, human; settings: siRNA 10 nM, CPT-11 3.5 μM, 48 hr, compared to untreated, mock, control siRNA
Procedure: FIG. 8 illustrates HCT116 cell proliferation following AREG/HB-EGF silencing by siRNA and/or Chemotherapy treatment. Cells were transfected with AREG siRNA (10 nM), HB-EGF siRNA (10 nM) or a control siRNA (10 nM). […] Cell proliferation was analysed by MTT assay 48 hr after transfection/chemotherapy
FIG. 28 illustrates HCT116 cell proliferation after treatment with AREG antibody. Cell proliferation was analysed by MTT assay 48 hr after treatment.
FIG. 30 illustrates HCT116 cell proliferation after treatment with AREG antibody. Cell proliferation was analysed by MTT assay 48 hr after treatment.
FIG. 31 illustrates HCT116 cell proliferation after treatment with AREG antibody. Cell proliferation was analysed by MTT assay 48 hr after treatment
FIG. 33 illustrates HCT116 cell proliferation following HB-EGF silencing by siRNA and/or treatment with Anti AREG antibodies (6E11 1E92D8 & 6E11 1E9 106). Cells were transfected with HB-EGF siRNA (50 nM) or a control siRNA (50 nM). Cell proliferation was analysed by MTT assay 72 hr after transfection. […]
Cell viability was assessed by 3-(4,5-dimethylthiazol-2-yl)-2,5-diphenyltetrazolium bromide (MTT, Sigma) assay (Mosmann, T. 1983. J. Immunol. Methods 65:55-63). […] Cell viability was determined by reading the absorbance of each well at 570 nm using a microplate reader (Tecan Sunrise, Biorad, UK).

[6] = system: HCT116 cells; assay: FACS analysis of cell surface AREG in HCT116 with or without irinotecan; assay type: cell-based, human; settings: 2.5 μM for 48 hours; HCT116 and H460 analysed, cell line not given
Procedure: Following treatment cells were stained with AREG monoclonal antibodies and analysed by FACS
After 48 hours cells were washed in PBS and blocked for 20 minutes in Normal Goat Serum. 5×10^5 cells were incubated with AREG antibodies or isotype control for 2 hours and washed in PBS-T. The cells were incubated with a FITC conjugated goat anti-mouse antibody for 1 hour and washed in PBS-T before analysis on BD FACS canto.

CCc1c2c(nc3ccc(OC(=O)N4CCC(N5CCCCC5)CC4)cc13)-c1cc3c(c(=O)n1C2)COC(=O)[C@]3(O)CC [CPT-11, irinotecan]
AREG mRNA expression (RT-PCR) [1]: up-regulation | AREG RNA expression (RT-PCR, 35 cycles) [2]: enhanced expression of AREG | AREG mRNA expression (RT-PCR) [3]: up-regulation | AREG expression levels (confocal microscopy) [4]: increasing levels of expression at each time point | effect on cell viability (MTT) [5]: no significant effect | increase in the cell surface expression of AREG (FACS) [6]: ≤ 40%
